Data as given in patent US20220267341A1, “SOLID FORMS OF TERT-BUTYL (S)-2((2S,3R)-1-AMINO-3-HYDROXY-1-OXOBU TAN-2-YL)-1-OXO-2, 5-DIAZASPIRO [3.4] OCTAN E-5-CARBOXYLATE AND METHODS OF PREPARING THEM” (NAUREX INC., priority 2019, published 2022).

Assays:
Assay type in all cases: physicochemical
[1] = Competitive slurry in mixtures of water and isopropanol; conditions: 25° C.
Method: Competitive slurry in mixtures of water and isopropanol indicates the phase boundary between the crystalline Form I and crystalline Form II is between water activity of 0.66-0.78 at 25° C. At water activity above 0.78, crystalline Form II is the stable form, whereas at water activity below 0.66, crystalline Form I is the stable form

[2] = DVS water vapor desorption analysis; conditions: 25° C.
Method: DVS: The following method was used for the water vapor desorption analysis using a DVS Advantage (Surface Measurement Systems). • Temperature: 25° C. • RH program: 95, 90, 80, 70, 60, 50, 40, 35, 30, 20, 10, 0%. • Dm/dt (%/min.): 0.0005 • Minimum equilibrium time: 120 minutes • Maximum equilibrium time: 2000 minutes
The solid was also subjected to DVS measurement and lost about 11% water at 0% RH.

[3] = DSC thermogram (dehydration event); conditions: 20 to 180° C. at 10° C./min, pin-hole lid
Method: DSC: DSC thermograms were obtained using a TA Instruments DSC Q2000. Approximately 1-2 mg of sample was weighed into a Tzero aluminum pan and hermetically sealed with a Tzero hermetic lid. For crystalline Form II samples, the lid was punched with a pin-hole. • DSC: Sample was scanned from 20 to 180° C. at 10° C./min.
(§1) In another experiment, about 2 g of crystalline Form I of Compound A from Example 1 was weighed into a 20 mL scintillation vial and 4 mL of Milli-Q water was added into the vial. The resulting suspension was stirred with a spatula and left at room temperature for one day. The residual was then filtered with vacuum and dried in a vacuum oven at room temperature for about 20 hours. XRPD was taken after drying and Form II was confirmed since it was essentially the same as FIG. 3, top panel. […] The dried sample was then dehydrated in a TGA pan at 80° C. (ramp from room temperature to 80° C. at 10° C./min and then isothermal for 2 min).

[4] = Thermogravimetric analysis (TGA); conditions: heated from room temperature at 10° C./minute; consistent with a dihydrate
Method: TGA: Approximately 5-10 mg sample was heated from room temperature to 250° C. at 10° C./minute.
as §1

[5] = Dehydration in a TGA pan at 80° C., form checked by XRPD and DSC; conditions: ramp to 80° C. at 10° C./min then isothermal for 2 min
Method: as §1

water activity at which the form is the stable form [1]	water lost in DVS ([2]; 0% RH)	water loss in DVS at or above 20% RH ([2]; at or above 20% RH)	possible dehydration event in DSC [3]	TGA weight loss [4]	water activity at which the form is the stable form ([1]; dihydrate)	SMILES	solid form after dehydration [5]
below 0.66						C[C@@H](O)[C@@H](C(N)=O)N1C[C@@]2(CCCN2C(=O)OC(C)(C)C)C1=O [crystalline Form I of Compound A, tert-butyl (S)-2-((2S,3R)-1-amino-3-hydroxy-1-oxobutan-2-yl)-1-oxo-2,5-diazaspiro[3.4]octane-5-carboxylate]	
	about 11%	did not lose water	about 82 °C	9.6%	above 0.78	C[C@@H](O)[C@@H](C(N)=O)N1C[C@@]2(CCCN2C(=O)OC(C)(C)C)C1=O [crystalline Form II of Compound A, tert-butyl (S)-2-((2S,3R)-1-amino-3-hydroxy-1-oxobutan-2-yl)-1-oxo-2,5-diazaspiro[3.4]octane-5-carboxylate dihydrate]	mostly crystalline Form I with residual amorphous content and very small amount of crystalline Form II
